Where “and” joins values, the source holds several entries; their conditions need not be identical. Equal values may be shown once. Where a name gives a salt, the structure may show the parent alone. Read-outs that look alike come from different tables or passages of the source.
Key:
[1] = XRPD after 7 days storage at 40° C./75% RH; assay type: physicochemical
Procedure: XRPD was again taken after 7 days storage at 40° C./75% RH. Form II of the diethylamine salt and Form II of the ethanolamine salt were formed by conversion of Form I of the respective salts after 7 days storage at 40° C./75% RH.
Form II of the calcium salt was produced from Form I of the calcium salt after 7 days storage at 40° C./75% RH.

[2] = assay type: physicochemical; details: for XRPD Analysis Post Dissolution: after IDR in faSSGf; for Average pH: during IDR run in 40 ml faSSGf media; for Average pH / IDR Average / IDR Duplicate: 37° C.; for IDR Average / IDR Duplicate: faSSGf media, 3 mm disc, 100 rpm; for IDR Average: average of duplicate; for IDR Duplicate: individual duplicate values
Procedure: Intrinsic Dissolution Rate was Determined in Simulated Intestinal Fluid at pH Base Buffer (FaSSGF):
Sodium chloride (2.0 g) and deionized water added to a 1000 ml volumetric flask, pH adjusted to 1.6 with concentrated hydrochloric […] acid, made up to volume with deionised water.
Phares SIF (simulated intestinal fluid) powder (0.06 g) was added to a 1 L volumetric flask and made to volume with base buffer.
(§1) Data were collected on a Sirius inform instrument fitted with a dual UV Dip Probe attachment and Ag/AgCI combination pH electrode. The electrode was calibrated using the four plus parameters derived from a blank titration. The base titrant was standardised by titration with TRIS. 0.5 M HCl and NaOH aqueous solutions were used as the acid and base titrants respectively for the testing. Stirring was facilitated by a dual overhead stirrer to allow thorough mixing within the vessel, and media was introduced via a capillary bundle attached to a dispensing bank comprised of six precision dispensing units. A Peltier heating jacket was used to maintain the temperature of the titration vessel. Discs were introduced to the vessel via the tablet picker housed in the probe arm, after the desired temperature of the media had been reached. Sirius inform Assay Design, Control and Refine software were used to design, run and refine data respectively.
(§2) One MEC data sets were then collected using five additions each of the water stock using 250, 500 and three times 750 μI aliquots, respectively. UV Spectra were then collected after each addition of the water stock to build a multi-point MEC calibration, using a 20 mm path length probe. The MEC data set was then imported into the dissolution data files in order to convert the UV absorbance measured to concentration. […] MEC data were collected in the dissolution media {faSSGf) and at 37° C. to match the dissolution experiments.
10-20 mg of the sample was compressed in a 3 mm disc recess, under 100 kg for 2 minutes, with greaseproof paper on the compression base, to form nondisintegrating discs. The discs were then plugged with a bung so that only one surface was exposed to the media during analysis and transferred to the Sirius inform dissolution apparatus. Analysis was performed at 37° C. in 40 ml faSSGf media for 1 hour with UV spectra collected every 30 seconds. A stir speed of 100 rpm was used with a 20 mm path length probe. The IDR was calculated based on the surface area of the 3 mm disc recess used (7.07 mm2 surface area). XRPD analysis was performed on all samples, both after compression of the material into the disc recess, and post dissolution analysis to observe any change in form. All analysis was performed using XRPD 2.
(§3) X-Ray Powder Diffraction (XRPD2): XRPD diffractograms were collected on a Bruker AXS C2 GADDS diffractometer using Cu Ka radiation (40 kV, 40 mA), an automated XYZ stage, a laser video microscope for auto sample positioning and a Vantec-500 2-dimensional area detector. X-ray optics consists of a single Gobel multilayer mirror coupled with a pinhole collimator of 0.3 mm. The beam divergence, i.e. the effective size of the X-ray beam on the sample, was approximately 4 mm. […] The sample was exposed to the X-ray beam for 120 seconds under ambient conditions. The software used for data collection and analysis was GADDS for Win7/XP and Diffrac Plus EVA respectively.

[3] = assay type: physicochemical; details: for XRPD Analysis Post Dissolution: after IDR at pH 4.5; for Average pH: during IDR run, 36 ml water and 4 ml GI media; for Average pH / IDR Average / IDR Duplicate: pH set to 4.5, 37° C.; for IDR Average / IDR Duplicate: 3 mm disc, 100 rpm; for IDR Average: average of duplicate; for IDR Duplicate: individual duplicate values
Procedure: Intrinsic Dissolution Rate was measure in GI tract buff (pH—4.5 buffer): 2.99 g sodium acetate trihydrate was dissolved in 14.0 ml 2N acetic acid in a 1000 ml volumetric flask, and then made to volume with deionised water.
as §1, with “DipProbe” for “Dip Probe”, “NaOHaqueous” for “NaOH aqueous”
as §2, with “collected” for “collected in the dissolution media {faSSGf) and”
Intrinsic Dissolution Rate (IDR): Approximately. 10-20 mg of the sample was compressed in a 3 mm disc recess, under 100 kg for 2 minutes, with greaseproof paper on the compression base, to form nondisintegrating discs. The discs were then plugged with a bung so that only one surface was exposed to the media during analysis and transferred to the Sirius inform dissolution apparatus. Analysis was performed at 37° C. in 36 ml water and 4 ml GI media with the pH set to 4.5, for 1 hour with UV spectra collected every 10 seconds. A stir speed of 100 rpm was used with a 20 mm path length probe. The IDR was calculated based on the surface area of the 3 mm disc recess used (7.07 mm2 surface area). XRPD analysis was performed on all samples, both after compression of the material into the disc recess, and post dissolution analysis to observe any change in form. All analysis was performed using XRPD 2.
as §3

For `CC(C)c1cccc(C(C)C)c1OCOP(=O)(O)O` [calcium salt of fospropofol (Form I)], the “Solid form (XRPD) after storage, starting from Form I” value [1] was “Form II”.
For Zinc, the “XRPD Analysis Post Dissolution” value [2] was “Amorphous”, the “Average pH” value [2] was 1.8 and the “IDR Average” value [2] was 1.3 mg/min/cm^2. The “IDR Duplicate” value [2] was 1.22 mg/min/cm^2 and 1.31 mg/min/cm^2, the “XRPD Analysis Post Dissolution” value [3] was “Amorphous” and the “Average pH” value [3] was 4.5. The “IDR Average” value [3] was 0.18 mg/min/cm^2 and the “IDR Duplicate” value [3] was 0.19 mg/min/cm^2 and 0.18 mg/min/cm^2.
In the case of `[Ca]` [Calcium], the “XRPD Analysis Post Dissolution” value [2] is reported as “Amorphous”, the “Average pH” value [2] is reported as 1.8 and the “IDR Average” value [2] is reported as 1.2 mg/min/cm^2. For the same molecule, the “IDR Duplicate” value [2] was 1.15 mg/min/cm^2 and 1.14 mg/min/cm^2, the “XRPD Analysis Post Dissolution” value [3] was “Amorphous” and the “Average pH” value [3] was 4.5. For the same molecule, the “IDR Average” value [3] was 0.44 mg/min/cm^2 and the “IDR Duplicate” value [3] was 0.51 mg/min/cm^2 and 0.37 mg/min/cm^2.
With `[Mg]` [Magnesium] the “XRPD Analysis Post Dissolution” value [2] was “Amorphous”, the “Average pH” value [2] was 1.8 and the “IDR Average” value [2] was 1.6 mg/min/cm^2. For the same molecule, the “IDR Duplicate” value [2] was 1.51 mg/min/cm^2 and 1.67 mg/min/cm^2, the “XRPD Analysis Post Dissolution” value [3] was “Amorphous” and the “Average pH” value [3] was 4.5. The “IDR Average” value [3] was 0.46 mg/min/cm^2 and the “IDR Duplicate” value [3] was 0.47 mg/min/cm^2 and 0.44 mg/min/cm^2.
With `NCCN` [Ethylene Diamine] the “XRPD Analysis Post Dissolution” value [2] was “Amorphous”, the “Average pH” value [2] was 1.6 and the “IDR Average” value [2] was 1.2 mg/min/cm^2. The “IDR Duplicate” value [2] was 1.16 mg/min/cm^2 and 1.29 mg/min/cm^2, the “XRPD Analysis Post Dissolution” value [3] was “Amorphous” and the “Average pH” value [3] was 4.5. For the same molecule, the “IDR Average” value [3] was 0.77 mg/min/cm^2 and the “IDR Duplicate” value [3] was 0.76 mg/min/cm^2 and 0.78 mg/min/cm^2.
For Sodium, the “Average pH” value [2] was 1.8, the “IDR Average” value [2] was 43 mg/min/cm^2 and the “IDR Duplicate” value [2] was 41.5 mg/min/cm^2 and 44.2 mg/min/cm^2. The “Average pH” value [3] was 4.6, the “IDR Average” value [3] was 37 mg/min/cm^2 and the “IDR Duplicate” value [3] was 38.04 mg/min/cm^2 and 35.67 mg/min/cm^2.

— US12377110B2, “Fospropofol methods and compositions” (Epalex Corporation, priority 2019, dated 2025)
